From patent US9393329B2, “N-alkoxyamide conjugates as imaging agents” (Lantheus Medical Imaging, Inc., priority 2009, dated 2016)

Tests used:
[1] = tested on: aorta of apolipoprotein E (ApoE) knockout mouse; experiment: In-vivo ApoE mouse aorta uptake studies; conditions: ApoE knockout mice on high-fat diet, 0.3-0.4 mCi/kg bolus via tail vein; for aorta:blood / aorta:heart: 60 min, ratio; for aorta uptake (% ID/g): tissue harvested at 60 min
Experimental: Mice were fed a high-fat diet to accelerate plaque formation and compounds were tested in the mice between 35-42 weeks on diet. Test compounds were administered at 0.3-0.4 mCi/kg to anesthetized mice in a single, bolus injection via the tail vein. Blood samples were collected via the tail between 0-30 min post injection for pharmacokinetic analysis and mice were euthanized by CO2 at 60 min for tissue harvesting. The aorta was first flushed with saline through the left ventricle exiting via the femoral vein then removed from the heart to the renal bifurcation; additional biological samples were also collected (blood, muscle, liver, kidney, bile, urine, heart, femur, reproductive organ, lung, spleen and innominate artery). All samples were weighed and assayed for radioactivity; uptake is expressed as a percentage of injected dose per gram of tissue (% ID/g).

[2] = tested on: aorta bearing atherosclerotic plaque; experiment: Ex-vivo blood vessel binding assay; set-up: species or system New Zealand white rabbits; conditions: 153Gd-labeled compound 0.135 μCi in phosphate buffered saline, plaque-bearing rabbit aorta sections, 2 h at 37° C., washed; percentage of initial activity
Experimental: Aorta bearing atherosclerotic plaque was obtained from New Zealand white rabbits that were balloon stripped along the abdominal aorta and placed on a high fat diet (0.5% cholesterol) for 16-22 weeks. Vascular injury was produced with a 4-F Fogarty catheter along the abdominal aorta and right iliofemoral artery. This procedure generates an accelerated complex lesion development with a lipid rich core covered by a fibrous cap in rabbits. Harvested aorta sections (0.5 cm) were incubated with 0.135 μCi of ^153Gd-labeled compound diluted in phosphate buffered saline (450 μL) for 2 h at 37° C. The supernatant was removed and analyzed by HPLC to assay compound stability. The tissue section was then washed with phosphate buffered saline (3×10 mL), then resuspended (10 mL) and incubated at 37° C. an additional 1 h. The supernatant was then removed, the washing process repeated and the tissue finally counted on a gamma counter. The amount of compound bound to the tissue was determined as a percentage of the initial activity according to the following formula: […]

In the case of CONC(=O)[C@@H](CCc1ccccc1)NCc1ccc(CNC(=O)CN2CCN(CC(=O)[O-])CCN(CC(=O)[O-])CCN(CC(=O)[O-])CC2)cc1.[153Gd+3] [Example 52], the “aorta:blood” value [1] is reported as 2.0, the “aorta:heart” value [1] is reported as 9.2 and the “aorta uptake (% ID/g)” value [1] is reported as 6.1 ± 1.2 % ID/g. For the same compound, the “% bound” value [2] was 6.9%.

O=C([O-])CN1CCN(CC(=O)[O-])CCN(CC(=O)NCc2ccc(CN[C@H](CCc3ccccc3)C(=O)NOCc3ccccc3)cc2)CCN(CC(=O)[O-])CC1.[153Gd+3] [Example 53] was tested, and the “aorta:blood” value [1] was 0.8, the “aorta:heart” value [1] was 4.2 and the “aorta uptake (% ID/g)” value [1] was 1.5 ± 0.1 % ID/g.

With CONC(=O)C(N)Cc1ccc(CNC(=O)CN2CCN(CC(=O)[O-])CCN(CC(=O)[O-])CCN(CC(=O)[O-])CC2)cc1.[153Gd+3] (stereo not shown) [Example 54] the “aorta:blood” value [1] was 1.2, the “aorta:heart” value [1] was 5.3 and the “aorta uptake (% ID/g)” value [1] was 2.5 ± 0.5 % ID/g.

For NC(Cc1ccc(CNC(=O)CN2CCN(CC(=O)[O-])CCN(CC(=O)[O-])CCN(CC(=O)[O-])CC2)cc1)C(=O)NOCc1ccccc1.[153Gd+3] (stereo not shown) [Example 55], the “aorta:blood” value [1] was 1.0, the “aorta:heart” value [1] was 8.8 and the “aorta uptake (% ID/g)” value [1] was 3.0 ± 2.3 % ID/g.
